Measurements from patent US20240099964A1, “Methods and Compositions for the Prophylactic Treatment of SARS-CoV-2 virus (COVID-19)” (MedinCell S.A., priority 2020, published 2024).

How the values were obtained:
SARS-CoV-2 = assay: Ivermectin effect on preventing SARS-CoV-2 infection of pretreated Vero-E6 cells (qRT-PCR); assay type: cell-based
Method: Assessment of Ivermectin effect on preventing SARS-CoV-2 infection Vero-E6 cells were incubated with 0.01, 0.025, 0.05, 0.1, 0.5, 1 or 5 μM concentrations of ivermectin during 2, 6, 16 or 24 hours. Then, cells were infected with SARS-CoV-2 at a multiplicity of infection (MOI) of 0.001, 0.01 or 0.1. After 2 hours of incubation in the presence of the virus, medium with the same concentration of ivermectin was added again. After 24, 48 or 72 hours, viral charge is quantified by qRT-PCR.

Vero-E6 cells = assay: Cytotoxicity in non-infected Vero-E6 cells (cell viability); assay type: cell-based; conditions: 0.01-5 μM ivermectin
Method: For avoiding false positives, cytotoxicity was evaluated by culturing non-infected cells in the same conditions and with the same concentrations of ivermectin. Cell viability was then determined.

[1] = system: SARS-CoV-2 clinical isolate; conditions: Vero/hSLAM cells, cited from earlier work
Zika virus (ZIKV) = conditions: mice; cited from earlier work
DENV = conditions: single daily oral dose; cited from earlier work

ivermectin
preincubation-time dependency of inhibition of viral replication (SARS-CoV-2; 72 hours post-infection, preincubation 2, 6, 16 or 24 hours): the longer the preincubation time with ivermectin, the higher the inhibition of viral replication | viral replication (RT-qPCR) (SARS-CoV-2; cells pretreated with ivermectin at 5 μM): highly inhibited | cell toxicity (Vero-E6 cells): No cell toxicity | antiviral action in vitro [1]: has antiviral action | time within which a single dose controls viral replication ([1]; single dose): 24 to 48 h | effectiveness against Zika virus (Zika virus (ZIKV)): not effective | safety (DENV): safe | serum levels of viral NS1 protein (DENV): significant reduction | viremia or clinical benefit (DENV): no change
